The values below are quoted from earlier work in patent publication US20060115514A1, “Chelating and binding chemicals to a medical implant, medical device formed, and therapeutic applications” (priority 2004, published 2006).

Data set [1] concerns restenosis. The settings on record: oral administration.
The subject of data set [2] is neointimal formation after balloon injury. The settings on record: after balloon injury in rats.

The structures appear in SMILES notation.

`CO[C@H]1C[C@@H]2CC[C@@H](C)[C@@](O)(O2)C(=O)C(=O)N2CCCC[C@H]2C(=O)O[C@H]([C@H](C)C[C@@H]2CC[C@@H](O)[C@H](OC)C2)CC(=O)[C@H](C)/C=C(\C)[C@@H](O)[C@@H](OC)C(=O)[C@H](C)C[C@H](C)/C=C/C=C/C=C/1C` [sirolimus]: in data set [1], the “incidence of adverse events” value is reported as “higher incidence of adverse events”.

With `N=C(N)c1ccc2cc(OC(=O)c3ccc(N=C(N)N)cc3)ccc2c1` [FUT-175], in data set [2], the neointimal formation result is “inhibits”.
